The values that follow come from patent US20060089335A1, “Compositions and methods for enhancing cognitive function and synaptic plasticity” (priority 2003, published 2006).

Series [1] has as its target NMDA receptors (NR2B-containing) (Rattus norvegicus, UniProt P35439+Q00960). Nature of the series: evoked NMDA currents ([…]), double-perforated patch. It is filed as cell-based. The method, then: Electrophysiology. Dual whole cell perforated patch clamp recordings were made on two interconnected cultured hippocampal pyramidal neurons. Perforated patch pipettes were front-filled with a solution containing (in mM): CsOH, 127; D-gluconic acid, 127; CsCl, 4; HEPES, 10; NaCl, 8; EGTA, 0.4; pH was adjusted to 7.25 with CsOH, and then back-filled with the same solution containing […] amphotericin B (Sigma, St. Louis, Mo.). Extracellular solution contained (in mM): NaCl, 145; KCl, 3; glucose, 15; HEPES, 10; MgCl2, 0.8-1.2; CaCl2, 1.2; 0.005 glycine (Sigma), 0.05 picrotoxin (Sigma); pH adjusted to 7.4 with NaOH. MgCl2 concentration was matched to its concentration in culture medium. In experiments where effects of drugs on neuronal activity were quantified (FIG. 4D), recordings were done in culture medium (with HEPES replacing bicarbonate/CO2 to maintain pH). All experiments were performed at room temperature. For assaying synaptic connectivity, each neuron was stimulated by 1 ms step depolarization from −70 to +30 mV in voltage-clamp mode. Only neurons with monosynaptic connections were used. […] Recordings with access resistance>20 MΩ or that varied substantially were rejected from analysis.
We hypothesized that one target may be the number and properties of NMDA receptors at individual synapses.

The subject of series [2] is excitatory and inhibitory terminals. The following applies: short treatment (2-24 hr).
The subject of series [3] is presynaptic terminals of cultured hippocampal neurons. Put plainly: TBS-induced presynaptic plasticity measured by FM 1-43 dye uptake in hippocampal cultures. Format: cell-based, rat.
The next series concerns NR2B. Put plainly: quantitative Western blotting of hippocampal homogenate. Format: in vivo, rat. The method, then:
(§1) Quantitative Western blotting. Samples of hippocampal homogenate (10 ug/sample) were resolved on polyacrylamide gels, transferred to PVDF, and probed with anti-NR1 (Chemicon), NR2A (Upstate) or NR2B (Santa Cruz Biotech), GluR1 (Chemicon), Synapsin1 (American Qualex), or PSD-95 (Upstate) antibody followed by the appropriate secondary antibody coupled to horseradish peroxidase (1:10,000, Santa Cruz Biotech) in Tris-buffered saline (pH 7.3) containing 5% dry milk and 0.1% Tween (BioRad). Visualization of immunoreactive bands was achieved by enhanced chemiluminescence (Perkin Elmer Biosciences) and captured on autoradiography film (Kodak Scientific). Standard curves, in which the amount of protein was varied systematically, were constructed to establish that we operated within the linear range of the chemiluminescence detection method. In addition, each immunoblot was exposed to autoradiography film multiple times (average 7; minimum 5) for varying duration to make sure we operated in the linear range of the film for each experiment. Digital images, produced by scanning films on a Epson 3200 Scanner (Epson) with Epson Scan Software (Epson), were quantified using GelPro Analyzer 3.1 software. The integrated optical density (IOD) of each immunoreactive band from hippocampal samples relative to baseline measured immediately above and below the band in the same lane, and normalized by the actin or neurofilament band also in the same lane. Group data (eight animals per group) are represented as the mean+/−SEM of the IOD of samples.
In general terms: A western blot detects proteins with antibodies after separation by electrophoresis.

Another series deals with GluR1. Described as above. It is filed as in vivo, rat. Conditions: baclofen 0.07 mg/kg/day in drinking water, 4 months; rats' hippocampus. The method, then: as §1
The nature of series [4]: general status of treated rats. Conditions: chronic treatment in drinking water, 4 months.

Entries after “also recorded” stand apart in the source; their conditions may differ.

NMDA receptors (NR2B-containing), sequence (Q00960 27-1482, other chains not shown): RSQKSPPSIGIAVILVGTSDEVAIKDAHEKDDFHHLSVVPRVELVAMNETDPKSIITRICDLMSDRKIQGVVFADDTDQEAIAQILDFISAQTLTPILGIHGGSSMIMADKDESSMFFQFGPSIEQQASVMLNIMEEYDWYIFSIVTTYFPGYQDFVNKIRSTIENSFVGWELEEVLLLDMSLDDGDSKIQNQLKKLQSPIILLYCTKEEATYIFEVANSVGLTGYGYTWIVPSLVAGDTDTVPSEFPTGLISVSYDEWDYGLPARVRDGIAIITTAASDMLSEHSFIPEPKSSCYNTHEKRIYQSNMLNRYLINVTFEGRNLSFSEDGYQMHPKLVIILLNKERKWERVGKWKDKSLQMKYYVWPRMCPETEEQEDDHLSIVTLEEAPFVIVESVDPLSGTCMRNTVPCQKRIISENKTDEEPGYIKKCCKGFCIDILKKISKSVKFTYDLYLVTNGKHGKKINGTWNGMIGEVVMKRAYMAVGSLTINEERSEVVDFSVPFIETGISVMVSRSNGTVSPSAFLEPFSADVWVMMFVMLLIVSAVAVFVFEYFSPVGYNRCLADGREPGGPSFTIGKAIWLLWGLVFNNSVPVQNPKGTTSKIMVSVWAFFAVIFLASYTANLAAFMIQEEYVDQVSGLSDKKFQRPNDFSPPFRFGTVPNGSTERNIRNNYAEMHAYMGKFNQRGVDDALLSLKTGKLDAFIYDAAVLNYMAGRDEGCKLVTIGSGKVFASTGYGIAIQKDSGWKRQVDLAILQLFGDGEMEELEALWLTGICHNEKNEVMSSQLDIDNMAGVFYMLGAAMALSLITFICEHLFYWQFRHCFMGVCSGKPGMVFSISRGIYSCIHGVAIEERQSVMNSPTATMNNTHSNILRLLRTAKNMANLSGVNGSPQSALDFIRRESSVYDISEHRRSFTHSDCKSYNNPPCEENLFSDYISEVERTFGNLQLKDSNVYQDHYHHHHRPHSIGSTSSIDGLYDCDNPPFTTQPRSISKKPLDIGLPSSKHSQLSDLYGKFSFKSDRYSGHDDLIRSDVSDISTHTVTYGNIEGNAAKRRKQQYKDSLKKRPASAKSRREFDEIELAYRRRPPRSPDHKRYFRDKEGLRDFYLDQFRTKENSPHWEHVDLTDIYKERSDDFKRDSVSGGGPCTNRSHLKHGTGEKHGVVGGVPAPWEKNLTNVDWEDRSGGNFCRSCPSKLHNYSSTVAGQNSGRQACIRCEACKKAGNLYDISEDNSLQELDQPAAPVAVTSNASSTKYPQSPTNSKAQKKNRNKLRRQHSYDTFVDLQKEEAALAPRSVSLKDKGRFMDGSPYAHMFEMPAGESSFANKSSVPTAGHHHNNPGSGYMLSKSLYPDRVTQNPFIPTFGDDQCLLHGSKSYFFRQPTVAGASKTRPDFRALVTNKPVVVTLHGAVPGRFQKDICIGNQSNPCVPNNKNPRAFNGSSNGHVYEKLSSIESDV

With `NCC(CC(=O)O)c1ccc(Cl)cc1` (stereo not shown) [baclofen, 4-amino-3-(4-chlorophenyl) butanoic acid], the “τdecay of EPSCNMDA, representative trace” value in series [1] (baclofen-treated neurons, FIG. 7A) is on record as 200 ms. In addition, in series [1] (baclofen-treated neurons, N=6), the “τdecay of EPSCNMDA, average” value stood at 176 ± 30 ms. For the same compound, the “ifenprodil-sensitivity of EPSCNMDA in treated versus control cultures” value in series [1] (ifenprodil 3 μM, baclofen 10 μM 6 hours or 1.2 mM Mg) is recorded as “triggered increased sensitivity of the EPSCNMDA to ifenprodil; also recorded: more sensitive to ifenprodil; also recorded: increases the sensitivity of EPSCNMDA to ifenprodil”. Further, the “change of synaptic density” value in series [2] is “No short treatment (2-24 hr, baclofen, nimodepine, NBQX, and TTX) produced a significant change of synaptic density”. Further, the “effect of theta-burst induction in treated cultures” value in series [3] (4-6 hours treatment, baclofen 20 μm, NBQX 1 μm, flunitrazepam 5 μm) is “Both the number of functional synapses and the probability of release increased”. For the same compound, the “plasticity of presynaptic terminals (S2/S1)” value in series [3] (baclofen 10 μM, short term (4-6 hours) and long term (48 hours)) is “induced enhancement of plasticity for both short term (4-6 hours) and long term (48 hours) periods of time; also recorded: enhances plasticity of presynaptic terminals”. The NR2B expression level result with NR2B (baclofen 0.07 mg/kg/day in drinking water, 4 months, rats' hippocampus) is “significant enhancement; also recorded: increases expression level”. Besides, the “increase in levels of NR2B protein” value in the series on NR2B (baclofen treatment (FIG. 10)) was “approximately 60%”. In addition, in the series on GluR1, the GLUR1 expression level entry is “significant enhancement; also recorded: increases expression level”. For the same compound, the “general status of the rats (body weight, mobility)” value in series [4] was “did not observe any significant change in the general status”.
